Measured values from patent EP0227593A1, “Use of chelating agents” (THE HOSPITAL FOR SICK CHILDREN, priority 1985, dated 1987).

What was measured:
[1] = tested on: peripheral blood blast cells; experiment: Surface marker analysis on PB smears before and after 48 hours of deferoxamine treatment (immunocytochemical method); format: in vivo, human; parameters: key to Ia intensity of staining / OKM1 intensity of staining / MY-4 intensity of staining: strong (+++); moderate (++); weak (+); details: PB smears after 48 hours of deferoxamine treatment
Procedure: (§1) Cell Culture Procedure: 2 x 10⁵ T-depleted cells were incubated with 40 % RPMI-methylcellulose, 20 % PHA-LCM, 10 % FCS, irradiated feeder cells (10⁵/dish), 16.6 % RPMI in 35 mm Petri dishes. The culture dishes were placed into a specialized modular incubator chamber (Billups-Rosenberg, Del Mar, CA) in a humidified atmosphere of 5 % O₂, 5 % CO₂ and balanced nitrogen for 3-6 days. After 2 days of incubation, the culture dishes were carefully examined. Colonies were counted at day 4. A cluster of more than 20 cells was defined as a colony. Individual colonies were plucked from the culture plates and smeared on microscope slides for further evaluation, using Wright stain and non-specific esterase staining. For control, 2 x 10⁵ irradiated feeder cells were cultured in the same assay system in each experiment to exclude their potential for colony formation Immunocytochemical Method: The cell surface antigens of air dried smears were detected using monoclonal antibodies and intestinal alkaline phosphatase, as previously described. This assay was performed to detect surface antigens on patients' PB and BM smears and colonies plucked from cultures. The slides were counter- stained in hematoxylin for light microscopy and the presence of surface antigen was indicated as bright red granular cellular inclusions. Morphologic details were well preserved, and a very high degree of correlation between morphology and surface antigen expression was observed. The intensity of staining was defined as strong (+++), moderate (++) and weak (+). Immunofluorescence Method: The cell surface phenotype was determined by indirect cell-surface fluorescence: A fluorescein-conjugated goat anti-mouse IgG (FAb')₂ was used as second antibody. The labelling was performed at room temperature in the presence of 0.2 % sodium azide. The percentage of cells with surface fluorescence was determined by counting cells stained in three replicate wells using an inverted phase-fluorescent microscope. Monoclonal Antibodies: The following monoclonal antibodies were used in these studies: anti-OKIa (Ortho Diagnostic Systems Inc. Raritan, NJ) to detect HLA-D framework antigen, anti-MY-7, anti-Mol and anti-MY-4 (coulter Immunology) to identify myelomonocytic markers, anti-Ig. anti-BA1, anti-BA2, anti-B1, and anti-B4 (Becton-Dickinson) to recognize cells of the B-cell lineage, anti-J5 (Coulter Immunology) to recognize cells bearing common ALL (CALLA) antigen and anti-Leu-1 and anti-Leu-4 (Coulter Immunology) to recognize cells of the T-cell lineage.
DFO and Blast Cell Differentiation: After 48 hours of continuous infusion of DFO as a single agent, striking changes in blast cell surface markers were detected immunocytochemically (Table 3). Prior to treatment, no blasts expressed OKM1 antigen, and only 8 % weakly expressed MY-4. After 48 hours, these two antigens were strongly detected in peripheral blood blast cells. Concomitantly with DFO therapy, there was a sharp decline from 37 % to 0 % of cells bearing B₄ antigen.
Immunologic surface markers were dermined before and after 48 hours of deferoxamine treatment on PB smears using the immunocytochemical method

[2] = tested on: PB leukemia cell colonies; experiment: Surface marker analysis of leukemia cell colonies grown with deferoxamine (immunocytochemical assay); format: cell-based, human; parameters: key to Ia intensity of staining / B4 intensity of staining / OKM1 intensity of staining / MY-4 intensity of staining: strong (+++); moderate (++); weak (+); details: colonies from cultures containing 2.5 µM deferoxamine
Procedure: as §1
DFO and Blast Cell Differentiation: Individual blast colonies from the culture plates containing DFO 2.5 µM were characterized (Table 2). Compared to colonies grown without exposure to DFO, a marked change in cell surface antigen expression was observed.
PB leukemia cell colonies were plucked at random from cultures containing 2.5 µM deferoxamine compared to cultures without deferoxamine using the immunocytochemical assay.

L-1210 tumour cells = experiment: L-1210 tumour growth in mice; format: in vivo; details: day 8
Procedure: One hour prior to kill on day 8 the mice received one ip injection of 0.002 mCi of 3H-thymidine per g body weight. Cells were harvested from the peritoneal cavity, the volume of ascites measured and the cell counts determined in a coulter counter, after lysis of red cells with zap-oglobin, for calculation of total tumour cell numbers. Also, of each sample cell smears were done, Feulgen stained and autoradiographed, whereby the number and percentage of labelled cells was determined and used as a measure for proliferating cells.

blasts = experiment: Marrow aspirate and cytochemistry at conclusion of the 20-day treatment protocol; format: in vivo, human
Description: In contrast to the marrow aspirate prior to DFO therapy, 60 % of the blasts were positive for non-specific esterase and staining could be inhibited by fluoride.

bone marrow cells = experiment: Surface marker analysis by immunofluorescence on bone marrow cells at conclusion of the 20-day treatment; format: in vivo, human; details: conclusion of 20-day treatment course
Procedure: as §1
Immunologic surface markers were determined by immunofluorescence before and at the conclusion of the 20-day treatment course on bone marrow cells.

[3] = tested on: peripheral blood blast cell numbers; experiment: 20-day experimental treatment protocol in a leukemia patient: WBC and blast counts; format: in vivo, human
Procedure: With informed consent and following an approval by the Human Experimentation Committee of our institution, an experimental protocol was initiated: DFO, dissolved in sterile water was given by continuous infusion of 10 mg/kg/hour; cytosine arabinoside (Ara-C) dissolved in saline was given by i.v. push, 5 mg/kg/dose. When used consecutively, DFO was stopped 8-12 hours prior to cytosine arabinoside.
Deferoxamine (DFO) was given by continuous infusion 10 mg/kg/hr Cytosine-arabinoside (Ara-C) was given by i.v. push, 5 mg/kg/dose.

[4] = DFO 400 mg/kg/d s.c. minipump from day 2, Ara-C 200 mg/kg once ip on day 6
[5] = Day 1, DFO continuous infusion 10 mg/kg/hr, 24 h
[6] = Day 3, after first 48 hours of DFO, Ara-C starts Day 3

`CC(=O)N(O)CCCCCNC(=O)CCC(=O)N(O)CCCCCNC(=O)CCC(=O)N(O)CCCCCN` [DFO, desferioxamine methanesulfonate] was tested, and the B4 positive cells [1] was 0%, the CALLA positive cells [1] was 0% and the “Ia intensity of staining” value [1] was “+++”. For the same compound, the Ia positive cells [1] was 80%, the Leu-1 positive cells [1] was 0% and the Leu-4 positive cells [1] was 0%. For the same compound, the “MY-4 intensity of staining” value [1] was “+++”, the MY-4 positive cells [1] was 60% and the “OKM1 intensity of staining” value [1] was “+++”. For the same compound, the OKM1 positive cells [1] was 40%, the “B4 Positive” value [2] was 30% and the “B4 intensity of staining” value [2] was “+++”. The “CALLA Positive” value [2] was 0%, the “Ia Positive” value [2] was 80% and the “Ia intensity of staining” value [2] was “+++”. The “Leu-1 Positive” value [2] was 0%, the “Leu-4 Positive” value [2] was 0% and the “MY-4 Positive” value [2] was 60%. The “MY-4 intensity of staining” value [2] was “++”, the “OKM1 Positive” value [2] was over 90% and the “OKM1 intensity of staining” value [2] was “+++”. For the same compound, the “proportions of proliferating cells” value (L-1210 tumour cells; 3H-thymidine labelled cells, same doses as Table 12) was 28 % ± 8%, the “Number of cells in the peritoneal cavity % of control” value (L-1210 tumour cells; [4]) was 95% and the “Number of cells in the peritoneal cavity x̄ ± SD” value (L-1210 tumour cells; [4]) was 3.49 ± 1.75 10^8. The “Number of proliferating cells in peritoneal cavity % of control” value (L-1210 tumour cells; [4]) was 80%, the “Number of proliferating cells in peritoneal cavity x̄ ± SD” value (L-1210 tumour cells; [4]) was 0.98 ± 0.64 10^8 and the “blasts in marrow aspirate” value (blasts; conclusion of the 20-day treatment protocol (DFO and Ara-C)) was 60%. The “blasts positive for non-specific esterase” value (blasts; marrow aspirate, conclusion of the 20-day treatment protocol) was 60%, the “% Positive Cells B4” value (bone marrow cells) was 10% and the “% Positive Cells BA-1” value (bone marrow cells) was 0%. For the same compound, the “% Positive Cells BA-2” value (bone marrow cells) was 0%, the “% Positive Cells Ia” value (bone marrow cells) was 75% and the “% Positive Cells MY-4” value (bone marrow cells) was 20%. The “% Positive Cells MY-7” value (bone marrow cells) was 20%, the “% Positive Cells Mo1” value (bone marrow cells) was 20% and the “% Positive Cells sIg” value (bone marrow cells) was 0%. The Blasts [3, 5] was 4.22e+10 L⁻¹, the WBC [3, 5] was 6.25e+10 L⁻¹ and the Blasts [3, 6] was 4.09e+10 L⁻¹. It also gave a WBC [3, 6] of 6.39e+10 L⁻¹.
